Measured values taken from PMC8587999, “Assessment of the Activity of Decoquinate and Its Quinoline-O-Carbamate Derivatives against Toxoplasma gondii In Vitro and in Pregnant Mice Infected with T. gondii Oocysts” (Molecules, 2021).
Read-outs that look alike come from different tables or passages of the source.

Experiments:
[1] = tested on: T. gondii β-gal tachyzoites; experiment: IC50 determination with T. gondii β-gal tachyzoites grown in HFF monolayers; format: cell-based, Toxoplasma gondii; details: for IC50: Toxoplasma gondii
Description: The efficacy of DCQ in vitro was determined using T. gondii β-gal constitutively expressing β-galactosidase grown in HFF monolayers. […] The low IC50 values and the low degree of cytotoxicity against HFF host cells in vitro encouraged us to examine the efficacy of oral treatment of CD1 mice infected with T. gondii oocysts with DCQ at 10 mg/kg/day for 5 days.
Due to the negative effects of treatment with DCQ, we investigated the efficacy in vitro of the three DCQ derivatives RMB054, RMB055 and RMB060 (Figure 1) in comparison to DCQ. Different concentrations of DCQ and the derivatives in DMSO were added to HFF either concomitantly with infection of T. gondii-β-gal tachyzoites, or 3 h after infection. […] The corresponding dose-response curves are shown in Supplementary Materials Figure S1. The viability of uninfected HFF was not impaired by the compounds up to concentrations of 5 µM (DCQ and RMB054) or 10 µM (RMB055, RMB060) (Table 1).
(§1) HFF cytotoxicity assessments and IC50 determinations using cultures of Tg-β-gal tachyzoites grown in HFF were carried out as described previously. IC50 values were calculated with the logit-log-transformation of the relative growth and subsequent regression analysis was done with the corresponding software tool contained in Microsoft Excel software package (Microsoft, Seattle, WA). For the long-term treatments, HFF grown in T25 culture flasks were infected with 5 × 10^5 TgMe49 tachyzoites, and after 4.5 h 0.5 μM DCQ, RMB054 or RMB060 were added. Infected cultures treated with the highest corresponding concentration of DMSO (0.5%) served as controls. Prolonged treatments for up to 24 days were carried out, with the addition of fresh medium containing the respective drug every 3–4 days. Cultures were inspected by light microscopy on a daily basis. On days 3, 6, 9, 13, 16, 20 and 24, the compound-containing medium was removed, and parasites were maintained without drug pressure until host cell lysis (plaque formation) was evident.

[2] = tested on: human foreskin fibroblasts (HFF); experiment: HFF cytotoxicity assessment; format: cell-based; details: for IC50: Homo sapiens, Fibroblast, uninfected HFF, no decline in viability over the concentration range
Description: as §1

[3] = Pregnancy interference test in non-infected BALB/c mice; format: in vivo; details: for No. of Non-Pregnant Mice/No. of Mice / No. of Pregnant Mice/No. of Mice: non-infected BALB/c; for Litter Size: total pups per group
Description: Eighteen female and 9 male BALB/c mice, all 8 weeks of age, were used. The females were oestrus-synchronized for 3 days by the Whitten effect and were mated by housing 2 females and 1 male for 72 h in one cage. Males were removed after mating and females were randomly assigned to 3 experimental groups of 6 mice each: DCQ; RMB060; placebo. On days 9–13 post-mating, DCQ and RMB060 were supplied at 10 mg/kg/day in 100 μL corn oil by oral gavage. The placebo group only received corn oil. Mice were observed and weighed on several days and on day 18, post-mating pregnant females were separated into single cages. […] Dams and pups were observed daily and data on fertility, litter size, neonatal and postnatal mortality was recorded for the following 2 weeks. All mice were euthanized in a chamber by isoflurane/CO2 inhalation.

[4] = tested on: T. gondii Me49 tachyzoites; experiment: Long-term drug treatment of TgMe49-infected HFF in vitro; format: cell-based, Toxoplasma gondii
Description: as §1, with “Prolonged treatments for up to 24 days were carried out, with the addition of fresh medium containing the respective drug every 3–4 days.” left out

[5] = tested on: T. gondii Me49 tachyzoites; experiment: TEM of T. gondii Me49 tachyzoites cultured in HFF under drug treatment; format: cell-based, Toxoplasma gondii
Description: For transmission electron microscopy (TEM), HFF grown in T25 culture flasks were infected with 10^7 TgMe49 tachyzoites and incubated for 3 h at 37 °C and 5% CO2. Subsequently, cultures were exposed to continuous treatment of 6h, 24 h, 48 h, and 72 h with 0.5 μM DCQ, RMB054 or RMB060, and 1 µM RMB055. Infected cultures treated with DMSO served as controls. TEM preparations were performed as described earlier. Samples were observed on a Philips CM 12 (Philips Research, Eindhoven, Holland) or a FEI Tecnai Spirit BioTwin TEM (TESCAN GmbH, Dormund, Germany), both operating at 80 kV.

[6] = tested on: BAG1 (bradyzoite antigen 1) expression in T. gondii Me49; experiment: Immunofluorescence staining for BAG1 expression in TgMe49-infected HFF; format: cell-based, Toxoplasma gondii; details: treatment for 48 h
Description: For immunofluorescence microscopy, 4 × 10^4 HFF were grown on glass coverslips for 24 h to form a sub-confluent monolayer and were exposed to 1.2 × 10^5 TgMe49 tachyzoites during 4 h at 37 °C and 5% CO2. The medium was replaced and supplemented with 20 nM DCQ and RMB060, or medium containing DMSO as control. Cultures infected with TgPgSp1 (low passage number) served as positive control for BAG1 (bradyzoite antigen 1) expression. Infected cells were cultured for 16 h, 24 h, and 48 h and fixed and labelled for immunofluorescence staining as described previously. A polyclonal rabbit anti-BAG1 antiserum was applied at 1:200 dilution, followed by a goat-anti-rabbit fluorescein-isothiocyanate conjugate (1:300), the monoclonal mouse anti-TgSAG1 antibody was diluted (1:100), followed by goat anti-mouse conjugated to tetramethylrhodamine-isothiocyanate at 1:300. Subsequently, samples were mounted in H-1200 Vectashield mounting medium (Vector Laboratories, Burlingame, CA, USA) containing 4,6-diamidino-2-phenylindole and were viewed on a Nikon E80i fluorescence microscope (Tokyo, Japan). Processing of images was performed using Openlab 5.5.2 (Improvision, PerkinElmer, Waltham, MA, USA) and the ImageJ software, version 1.53 m.

[7] = set-up: method as in https://www.drugs.com/pro/deccox.html; details: rats; ref https://www.drugs.com/pro/deccox.html; cited from earlier work
T. gondii = details: cited from earlier work
[8] = tested on: liver stage of Plasmodium berghei malaria parasites; set-up: method as in doi:10.1038/s42004-018-0062-7; details: cited from earlier work
[9] = HFF vs T. gondii, compound applied prior to / concomitantly with infection
[10] = Tg-β-gal in HFF, compound added 3 h post-infection, [upper, lower limit of 95% CI], read-out: IC50 T. gondii (nM) [LS, LI] Compound Added 3 h Post-infection
[11] = Tg-β-gal in HFF, compound added prior to / concomitantly with infection, [upper, lower limit of 95% CI], read-out: IC50 T. gondii (nM) [LS, LI] Compound Added Prior to Infection
[12] = short-term growth assays, added with infection or 3 h after, read-out: IC50 T. gondii, range depending on the time point of initiation of treatment
[13] = 10 mg/kg/day oral, days 9–13 post-mating

CCCCCCCCCCOc1cc2c(O)c(C(=O)OCC)cnc2cc1OCC [DCQ, ethyl 6-decyloxy-7-ethoxy-4-oxo-1H-quinoline-3-carboxylate]
Selectivity Index [1, 9]: >4545
IC50 [1, 10]: 4.7 nM
IC50 [1, 11]: 1.1 nM
IC50 [1, 12]: 1.1 to 4.7 nM
Concentration up to which viability of uninfected HFF was not impaired [2]: 5 µM
IC50 [2]: > 5000 nM
Interference in pregnancy [3, 13]: strong interference in pregnancy outcome
Neonatal Mortality ([3]; female, BALB/c, mouse, in vivo, po, 10 mg/kg/day): 0/7
No. of Non-Pregnant Mice/No. of Mice [3, 13]: 4/6
No. of Pregnant Mice/No. of Mice [3, 13]: 2/6
Litter Size [3, 13]: 7
Parasiticidal effect after long-term treatment ([4]; 500 nM, 52 days): no parasiticidal effect
Parasiticidal effect in long-term treatment assays ([4]; up to 500 nM per day for 24 days): not parasiticidal
Ultrastructural alterations of the parasite mitochondrion (TEM) ([5]; within 24 h): distinct alterations in the parasite mitochondrion
Expression of the bradyzoite marker BAG1 [6]: induced the expression of BAG1
LD50 [7]: > 5000 mg/kg
Effect of treatment of infected cultures, T. gondii RH strain (T. gondii; 240 nM): tissue cyst formation
IC50 (T. gondii; read-out: IC50, inhibition of T. gondii proliferation in vitro): 12 nM

CCCCCCCCCCOc1cc2c(OC(=O)N3CCN(S(C)(=O)=O)C3=O)c(C(=O)OCC)cnc2cc1OCC [RMB060]
Selectivity Index [1, 9]: >142,857
Concentration that caused a complete growth inhibition in dose response assays ([1]; T. gondii tachyzoites in HFF): 500 nM
IC50 [1, 10]: 0.7 nM
IC50 [1, 11]: 0.07 nM
IC50 [1, 12]: 0.07 to 0.7 nM
Selectivity Index ([1]; compound added to intracellular parasites at 3 h post-infection): > 14,000
Concentration up to which viability of uninfected HFF was not impaired [2]: 10 µM
IC50 [2]: > 10000 nM
Interference in pregnancy [3, 13]: only minor interference in pregnancy
Postnatal Mortality [3, 13]: 0/24
Neonatal Mortality ([3]; first 2 days post-partum, 10 mg/kg/day oral, days 9–13 post-mating): 3/27
No. of Non-Pregnant Mice/No. of Mice [3, 13]: 2/6
No. of Pregnant Mice/No. of Mice [3, 13]: 4/6
Litter Size [3, 13]: 27
Killing of tachyzoites after long-term exposure ([4]; 300 nM for 52 days): did not result in the complete killing of all tachyzoites
Concentration to which tachyzoites adapted, fold the IC50 ([4]; exposure for longer timespans, parasites resumed proliferation and formed lysis plaques): up to 4286 fold
Ultrastructural alterations of the parasite mitochondrion (TEM) ([5]; 500 nM for 6 h, treatment started 3 h after infection): mitochondrial matrix had a less electron dense appearance and dissolved cristae became evident
Expression of the bradyzoite marker BAG1 [6]: expression of the bradyzoite marker BAG1 in the cytoplasm of some, but not all, parasites
IC50 (T. gondii; read-out: previously reported IC50 against T. gondii): 1.1 nM
Activity against the liver stage of Plasmodium berghei [8]: highly active
